Consider one compound from patent US20040014694A1, “Use of docetaxel/doxorubicin/cyclophosphamide in adjuvant therapy” (priority 2002, published 2004).

For assay [1], the system named is metastatic breast cancer (MBC). The settings on record: MBC progressing despite previous anthracycline containing chemotherapy; cited from earlier work.
Assay [2] can be described thus: In-house proprietary studies of docetaxel alone, overall response rate. The class given is in vivo. The settings on record: first line therapy. How it is done:
Docetaxel alone, in several in-house proprietary studies, gave overall response rates of 40 to 43% (in second line therapy at a dose of 100 mg/m^2), 48% (in first line therapy at a dose of 75 mg/m^2) and 61% (in first line therapy at a dose of 100 mg/m^2).

A further assay relates to advanced breast cancer. Conditions: advanced breast cancer after anthracycline failure; cited from earlier work.

`CC(=O)O[C@@]12CO[C@@H]1C[C@H](O)[C@@]1(C)C(=O)[C@H](O)C3=C(C)[C@@H](OC(=O)[C@H](O)[C@@H](NC(=O)OC(C)(C)C)c4ccccc4)C[C@@](O)([C@@H](OC(=O)c4ccccc4)[C@H]21)C3(C)C` [Docetaxel, docetaxel]: the “response, median time to progression (TTP), and survival compared with MV” value in assay [1] is given as “significantly superior to MV”. In addition, the overall response rate in assay [2] (dose 75 mg/m^2) is reported as 48%; in assay [2] (dose 100 mg/m^2), 61%. For the same compound, the “response rate and TTP compared with MF” value with advanced breast cancer is “superior to sequential methotrexate and 5-fluoruracil”.
